Test results from publication PMC5317395, “Structure and inhibitor specificity of the PCTAIRE-family kinase CDK16” (Biochemical Journal, 2017).
pIC50: −log10 of the molar value.

biological target: T1, CDK16 (Homo sapiens, UniProt Q00536); test: co-crystal structure ([…] Å); also DSF ΔTm […] °C, kinase assay IC50 (E. coli CDK16 + cyclin Y/[…]-3-3); assay type: biochemical; set-up: PCTAIRE-tide substrate; details: not given
T1 sequence (Q00536 whole entry): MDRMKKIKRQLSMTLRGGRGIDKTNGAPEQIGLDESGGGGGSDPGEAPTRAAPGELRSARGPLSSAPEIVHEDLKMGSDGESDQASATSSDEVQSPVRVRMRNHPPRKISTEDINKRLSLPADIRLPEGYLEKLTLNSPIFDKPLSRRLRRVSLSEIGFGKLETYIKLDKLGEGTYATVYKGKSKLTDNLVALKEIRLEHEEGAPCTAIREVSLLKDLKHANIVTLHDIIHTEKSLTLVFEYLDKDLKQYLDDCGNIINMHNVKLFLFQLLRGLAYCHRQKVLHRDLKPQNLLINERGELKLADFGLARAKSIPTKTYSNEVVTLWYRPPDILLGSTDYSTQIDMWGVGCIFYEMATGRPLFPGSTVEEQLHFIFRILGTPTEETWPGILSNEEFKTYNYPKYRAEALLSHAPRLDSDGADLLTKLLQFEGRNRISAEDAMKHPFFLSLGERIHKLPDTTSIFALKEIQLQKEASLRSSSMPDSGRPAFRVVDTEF
T1 sequence (Q8ND76 2-341 partner): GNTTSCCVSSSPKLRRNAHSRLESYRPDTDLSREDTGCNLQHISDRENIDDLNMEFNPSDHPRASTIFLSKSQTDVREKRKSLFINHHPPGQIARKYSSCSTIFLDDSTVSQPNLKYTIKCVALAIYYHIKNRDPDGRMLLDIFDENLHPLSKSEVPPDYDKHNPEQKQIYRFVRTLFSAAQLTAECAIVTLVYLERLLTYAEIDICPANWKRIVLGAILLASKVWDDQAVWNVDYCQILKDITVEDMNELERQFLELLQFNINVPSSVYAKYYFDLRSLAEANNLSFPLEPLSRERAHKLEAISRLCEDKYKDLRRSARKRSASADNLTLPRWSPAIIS

Row | SMILES | pIC50
1 | O=C1Nc2ccccc2/C1=C1/Nc2ccccc2/C1=N\OCCC(O)CO (stereo not drawn) [indirubin E804] | 7.08

biological target: T1, CDK16; test: co-crystal structure ([…] Å); also DSF ΔTm […] °C, kinase assay IC50 (E. coli CDK16 + cyclin Y/[…]-3-3), CETSA; assay type: biochemical; set-up: PCTAIRE-tide substrate; details: not given

Row | SMILES | pIC50
2 | CNC(=O)c1cc(Oc2ccc(NC(=O)Nc3cc(C(C)(C)C)nn3-c3ccc4ncccc4c3)c(F)c2)ccn1 [rebastinib] | 7.49

biological target: T2, CDK16 (Homo sapiens, UniProt Q00536, S319D); test: biochemical; set-up: Differential scanning fluorimetry (SYPRO Orange), 2 uM CDK16, Tm shift versus 2.5% DMSO control; details: 12.5 µM; binder; Tm shift (°C)
T2 construct: kinase domain, CDK16 163–478, C-terminal His tag
Procedure: Thermal melting experiments were performed using a Real-Time PCR machine Mx3005p (Stratagene) as described previously. Briefly, 2 μM CDK16 was screened against a collection of kinase inhibitors in a 96-well plate format. […] Data were analysed with the MxPro software. […] To identify protein constructs suitable for structural studies, human CDK16 was recombinantly expressed in E. coli with a variety of N- and C-terminal truncations. […] To identify potential inhibitors of CDK16, we screened the recombinant protein kinase domain against many inhibitor libraries using differential scanning fluorimetry (DSF). Ligands in this assay increase a protein's melting temperature (Tm shift, ΔTm) by an amount proportional to their binding affinity. […] Rebastinib is a multitargeted type II kinase inhibitor that was developed to inhibit BCR-ABL as well as the drug-resistant gatekeeper mutant ABL^T315I (Figure 1). It has entered phase I clinical trials for chronic myeloid leukaemia.

T2 sequence (Q00536 163-478 S319D): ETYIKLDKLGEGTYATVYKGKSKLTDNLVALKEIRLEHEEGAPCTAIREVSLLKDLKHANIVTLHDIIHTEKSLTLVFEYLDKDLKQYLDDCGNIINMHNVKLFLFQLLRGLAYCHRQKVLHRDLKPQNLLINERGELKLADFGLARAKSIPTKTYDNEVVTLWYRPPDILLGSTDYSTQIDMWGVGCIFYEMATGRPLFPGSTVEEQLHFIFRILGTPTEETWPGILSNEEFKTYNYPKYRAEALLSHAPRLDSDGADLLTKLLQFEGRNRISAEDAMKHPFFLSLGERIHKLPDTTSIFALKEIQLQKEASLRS

Row | SMILES | Tm shift (°C)
3 | CN1CCC(C(=O)Nc2n[nH]c3nc(-c4ccc(O)cc4)c(Br)cc23)CC1 [SB-732881] | 5.2 °C

same assay, conditions: read-out: Tm shift (°C)

Row | SMILES | ΔTm at 12.5 µM
4 | O=Nc1c(-c2c(O)[nH]c3ccc(I)cc23)[nH]c2ccccc12 [5-Iodo-indirubin-3′-monoxime] | 6.1 °C
5 | O=C1Nc2ccccc2/C1=C\c1cnc[nH]1 [(Z,E)-3-(imidazol-4-ylmethylene)indolin-2-one] | 6.7 °C
6 | O=C(Nc1c[nH]nc1-c1nc2ccc(CN3CCOCC3)cc2[nH]1)NC1CC1 [AT9283] | 5.7 °C
7 | CC(C)Oc1cc(Nc2nc(N[C@@H](C)c3ccc(F)cn3)ncc2Cl)n[nH]1 [AZ23] | 5.8 °C
8 | N#CCCc1ccc2c(c1)-c1[nH]c3ccc([N+](=O)[O-])cc3c1CC(=O)N2 [Alsterpaullone, 2-Cyanoethyl] | 7.9 °C
9 | Nc1nc(Nc2ccc(S(N)(=O)=O)cc2)nn1C(=S)Nc1c(F)cccc1F [Cdk1/2 Inhibitor III] | 9.6 °C
10 | Cc1nc(N)sc1-c1ccnc(Nc2cccc([N+](=O)[O-])c2)n1 [Cdk2/9 Inhibitor] | 7.2 °C
11 | O=C(O[C@H]1CN[C@H](C#Cc2cc3ncnc(Nc4ccc(Cc5ccccc5)cc4)c3s2)C1)N1CCOCC1 [GSK238583A] | 5.8 °C
12 | NS(=O)(=O)c1ccc(NN=C2C(=O)Nc3ccc(C(=O)NCc4ccncc4)cc32)cc1 [GW300657X] | 8.8 °C
13 | NS(=O)(=O)c1ccc(N/N=C2\C(=O)Nc3ccc(C(=O)NCCc4c[nH]cn4)cc32)cc1 [GW300660X] | 6.8 °C
14 | CC(C)(CO)CNC(=O)c1ccc2c(c1)/C(=N/Nc1ccc(S(N)(=O)=O)cc1)C(=O)N2 [GW301784X] | 6 °C
15 | CC(C)COC(=O)c1ccc2c(c1)/C(=C/Nc1ccc(S(N)(=O)=O)cc1)C(=O)N2 [GW416981X] | 8.7 °C
16 | CCN(CC)Cc1ccc(Nc2nccc(-c3cnn4ncccc34)n2)cc1 [GW780056X] | 4.8 °C
17 | O=Nc1c(-c2c(O)[nH]c3ccc(S(=O)(=O)O)cc23)[nH]c2ccccc12 [Indirubin-3′-monoxime-5-sulphonic acid] | 6.7 °C
18 | CNC(=O)c1nn(C)c2c1C(C)(C)Cc1cnc(Nc3ccc(N4CCN(C)CC4)cc3)nc1-2 [Milciclib] | 6.2 °C
19 | Cc1ccc([N+](=O)[O-])cc1S(=O)(=O)N(C)/N=C/c1cnc2ccc(Br)cn12 [PIK-75] | 4.7 °C
20 | CNC(=O)c1cc(Oc2ccc(NC(=O)Nc3ccc(Cl)c(C(F)(F)F)c3)c(F)c2)ccn1 [Regorafenib] | 4.1 °C
21 | CN1CCC(C(=O)Nc2n[nH]c3nc(-c4ccc(O)cc4)c(Br)cc23)CC1 [SB-732881-H] | 5.5 °C
22 | CCN1CCC(CC(=O)Nc2n[nH]c3nc(-c4cccs4)c(Br)cc23)CC1 [SB-739245-AC] | 5.4 °C
23 | COc1ccc2c(c1)/C(=C/c1cnc[nH]1)C(=O)N2 [SU9516] | 6 °C
24 | CC(C)(C)c1nc(-c2cccc(NS(=O)(=O)c3c(F)cccc3F)c2F)c(-c2ccnc(N)n2)s1 [dabrafenib] | 10.4 °C
25 | O=C1Nc2ccccc2/C1=C1/Nc2ccccc2/C1=N\OCCC(O)CO (stereo not drawn) [indirubin E804] | 7.6 °C
26 | CNC(=O)c1cc(Oc2ccc(NC(=O)Nc3cc(C(C)(C)C)nn3-c3ccc4ncccc4c3)c(F)c2)ccn1 [rebastinib] | 12.6 °C

biological target: T1, CDK16; test: […] kinase assay with PCTAIRE-tide; also DSF ΔTm […] °C; assay type: biochemical; set-up: E. coli-purified human CDK16 (kinase assay); 163–478 S319D in DSF; with cyclin Y (with endogenous 14-3-3); details: not given

Row | SMILES | pIC50
27 | CC(C)(C)c1nc(-c2cccc(NS(=O)(=O)c3c(F)cccc3F)c2F)c(-c2ccnc(N)n2)s1 [dabrafenib] | 7.46
